This passage reports EC50 results from US20250282776A1, “Bicyclic TLR7 Agonists and Uses Thereof” (Bristol-Myers Squibb Company, priority 2024, published 2025).

One assay has as its target T1, human TLR8 (hTLR8) (Homo sapiens, UniProt Q9NR97).
T1 construct: expressed in transfected cells
T1 sequence (Q9NR97 27-1041): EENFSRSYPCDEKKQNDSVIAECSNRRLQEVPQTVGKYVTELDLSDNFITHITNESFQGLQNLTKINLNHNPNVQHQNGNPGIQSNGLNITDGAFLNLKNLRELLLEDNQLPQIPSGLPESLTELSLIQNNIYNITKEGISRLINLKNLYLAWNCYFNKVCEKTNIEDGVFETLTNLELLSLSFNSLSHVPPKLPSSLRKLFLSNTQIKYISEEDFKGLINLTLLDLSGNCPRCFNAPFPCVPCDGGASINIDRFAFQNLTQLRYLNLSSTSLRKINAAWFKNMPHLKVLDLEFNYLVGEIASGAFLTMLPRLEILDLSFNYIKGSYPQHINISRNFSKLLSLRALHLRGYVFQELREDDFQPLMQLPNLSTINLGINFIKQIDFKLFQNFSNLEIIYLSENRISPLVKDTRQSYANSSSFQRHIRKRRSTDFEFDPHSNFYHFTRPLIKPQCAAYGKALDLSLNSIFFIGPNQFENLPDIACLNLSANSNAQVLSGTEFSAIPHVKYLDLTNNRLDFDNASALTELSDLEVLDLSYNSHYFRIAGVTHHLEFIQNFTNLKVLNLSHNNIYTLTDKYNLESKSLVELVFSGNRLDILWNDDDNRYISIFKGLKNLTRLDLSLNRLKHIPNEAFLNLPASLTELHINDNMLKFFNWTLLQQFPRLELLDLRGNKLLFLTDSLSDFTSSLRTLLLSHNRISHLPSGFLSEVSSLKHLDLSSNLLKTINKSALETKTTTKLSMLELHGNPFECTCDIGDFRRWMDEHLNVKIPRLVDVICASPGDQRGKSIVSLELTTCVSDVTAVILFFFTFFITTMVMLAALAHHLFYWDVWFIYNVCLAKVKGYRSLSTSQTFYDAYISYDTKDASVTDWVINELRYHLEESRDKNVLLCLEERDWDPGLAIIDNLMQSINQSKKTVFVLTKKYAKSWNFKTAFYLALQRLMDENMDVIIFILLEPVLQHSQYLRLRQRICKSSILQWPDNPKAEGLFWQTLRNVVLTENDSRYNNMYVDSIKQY
Briefly: Human TLR8 agonist activity assay (measured in a similar manner). In kind it is cell-based. The conditions noted are these: HEK-Blue TLR cells, SEAP reporter, measured in a similar manner to TLR7; some values average of multiple measurements. On the procedure: (§1) This procedure describes a method for assaying human TLR7 (hTLR7) and human TLR8 (hTLR8) agonist activity of the compounds disclosed herein.
HEK-Blue™ TLR7 cells were added to each well of a 384-well tissue-culture plate (15,000 cells per well) and incubated 16-18 h at 37° C., 5% CO2. Compounds (100 nL) were dispensed into wells containing the HEK-Blue™ TLR cells and the treated cells were incubated at 37° C., 5% CO2. After 18 h, ten microliters 5 of freshly prepared Quanti-Blue™ reagent (Invivogen) was added to each well and incubated for 30 min (37° C., […]). SLAP levels were measured using an Envision plate reader (OD=620 nm). […] Some of the reported activities were the average of multiple measurements.
TLR8 activity was measured in a similar manner.

The next assay concerns the target T2, human TLR7 (hTLR7) (Homo sapiens, UniProt Q9NYK1).
T2 construct: host or cells: HEK-Blue TLR7 cells (engineered human embryonic kidney cells)
T2 sequence (Q9NYK1 27-1049): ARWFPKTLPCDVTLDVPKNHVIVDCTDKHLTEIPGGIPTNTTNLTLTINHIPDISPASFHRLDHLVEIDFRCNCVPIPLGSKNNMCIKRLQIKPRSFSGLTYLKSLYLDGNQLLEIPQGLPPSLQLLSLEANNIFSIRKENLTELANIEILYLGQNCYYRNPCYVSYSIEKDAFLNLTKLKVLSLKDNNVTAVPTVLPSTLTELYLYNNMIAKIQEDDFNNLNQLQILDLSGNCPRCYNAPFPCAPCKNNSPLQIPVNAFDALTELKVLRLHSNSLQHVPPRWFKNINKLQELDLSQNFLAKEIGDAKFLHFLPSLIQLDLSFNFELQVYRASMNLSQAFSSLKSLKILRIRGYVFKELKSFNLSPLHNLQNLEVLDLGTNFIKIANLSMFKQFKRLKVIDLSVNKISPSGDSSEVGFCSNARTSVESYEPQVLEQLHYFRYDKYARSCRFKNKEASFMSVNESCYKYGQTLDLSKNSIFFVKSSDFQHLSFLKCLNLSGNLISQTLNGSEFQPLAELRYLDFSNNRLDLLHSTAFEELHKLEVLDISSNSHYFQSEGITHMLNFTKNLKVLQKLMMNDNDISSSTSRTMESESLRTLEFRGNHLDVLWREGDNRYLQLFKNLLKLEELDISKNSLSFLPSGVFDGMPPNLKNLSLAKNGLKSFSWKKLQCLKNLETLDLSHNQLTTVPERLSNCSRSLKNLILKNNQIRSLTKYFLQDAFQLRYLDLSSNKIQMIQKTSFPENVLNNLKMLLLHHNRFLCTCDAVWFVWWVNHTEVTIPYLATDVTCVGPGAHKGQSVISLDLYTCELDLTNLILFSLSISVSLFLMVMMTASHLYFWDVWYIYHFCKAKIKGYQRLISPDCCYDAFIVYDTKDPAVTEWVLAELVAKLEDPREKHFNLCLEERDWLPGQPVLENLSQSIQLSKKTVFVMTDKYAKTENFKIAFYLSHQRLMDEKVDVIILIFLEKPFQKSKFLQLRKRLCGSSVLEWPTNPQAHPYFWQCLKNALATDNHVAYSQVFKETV
In words: Human TLR7 agonist activity assay (HEK-Blue TLR7 SEAP reporter). The format is cell-based. The following applies: HEK-Blue TLR7 cells, 18 h incubation, Quanti-Blue, OD 620 nm, some values average of multiple measurements. As for the experimental part:
as §1
HEK-Blue™ TLR7 cells were added to each well of a 384-well tissue-culture plate (15,000 cells per well) and incubated 16-18 h at 37° C., 5% CO2. Compounds (100 nL) were dispensed into wells containing the HEK-Blue™ TLR cells and the treated cells were incubated at 37° C., 5% CO2. After 18 h, ten microliters 5 of freshly prepared Quanti-Blue™ reagent (Invivogen) was added to each well and incubated for 30 min (37° C., […]). SLAP levels were measured using an Envision plate reader (OD=620 nm). The half maximal effective concentration values (ECSO; compound concentration which induced a response halfway between the assay baseline and maximum) were calculated. Some of the reported activities were the average of multiple measurements.

pEC50: −log10 of the molar value.

As a reminder, the pEC50 is the negative decadic logarithm of the EC50, by convention in mol/L. With `CCCCN(CCO)c1nc(N)nc2cn(Cc3ccc(CN4CC(OC)C4)cc3OC)nc12` [Compound 5], the values for the pEC50 on human TLR8 (hTLR8) and on human TLR7 (hTLR7) were 6.15 and 6.19, respectively.
On the same counts, the results for `CCCCN(CCO)c1nc(N)nc2cn(Cc3ccc(CN4CC5(CC(OC)C5)C4)cc3OC)nc12` [Compound 6] are 6.05 and 6.17.
The like results for `CCCCN(CCO)c1nc(N)nc2cn(Cc3ccc(CNC(C)(C)C)cc3OC)nc12` [Compound 7] were, in that order, 6.22 and 6.01.
For `CCCCN(CCO)c1nc(N)nc2cn(Cc3ccc(CNCC(C)(C)O)cc3OC)nc12` [Compound 9], the pEC50 at human TLR8 (hTLR8) was 5.90; at human TLR7 (hTLR7), 5.79.
On the same counts, the results for `CCCCN(CCO)c1nc(N)nc2cn(Cc3ccc(CNCCOC)cc3OC)nc12` [Compound 10] are 5.84 and 5.88.
The like results for `CCCCN(CCO)c1nc(N)nc2cn(Cc3ccc(CN4C[C@H]5COC[C@H]5C4)cc3OC)nc12` [Compound 11] were, in that order, 6.14 and 6.14.
On the same counts, the results for `CCCCNCc1ccc(Cn2cc3nc(N)nc(N(CCO)CCCC)c3n2)c(OC)c1` [Compound 12] are 6.32 and 6.18.
On to `CCCCN(CCO)c1nc(N)nc2cn(Cc3ccc(CN4CCN(C)CC4)cc3OC)nc12` [Compound 13], for which the pEC50 on human TLR8 (hTLR8) was 5.95; on human TLR7 (hTLR7), 6.13.
On the same counts, the results for `CCCCN(CCO)c1nc(N)nc2cn(Cc3c(F)cc(C4=CCNCC4)cc3OC)nc12` [Compound 15] are 5.60 and 6.16.
In the case of `CCCCN(CCO)c1nc(N)nc2cn(Cc3c(F)cc(C4CCNCC4)cc3OC)nc12` [Compound 16], the pEC50 at human TLR8 (hTLR8) is 5.60; on human TLR7 (hTLR7), 6.13.
For `CCCCN(CCO)c1nc(N)nc2cn(Cc3ccc(CNCC)cc3OC)nc12` [Compound 17], the pEC50 is 6.13 at human TLR8 (hTLR8) and 5.94 on human TLR7 (hTLR7).
Regarding `CCCCN(CCO)c1nc(N)nc2cn(Cc3ccc(CN4CCOCC4)cc3OC)nc12` [Compound 18], the pEC50 was 6.35 on human TLR8 (hTLR8) and 6.42 at human TLR7 (hTLR7).
The like results for `CCCCN(CCO)c1nc(N)nc2cn(Cc3ccc(CN4CCN(CCO)CC4)cc3OC)nc12` [Compound 19] were, in that order, 5.83 and 6.16.
The like results for `CCCCN(CCO)c1nc(N)nc2cn(Cc3ccc(CN4CC(O)C4)cc3OC)nc12` [Compound 20] were, in that order, 6.15 and 5.93.
The like results for `CCCCN(CCO)c1nc(N)nc2cn(Cc3ccc(CNC4(C)COC4)cc3OC)nc12` [Compound 21] were, in that order, 6.08 and 6.23.
On to `CCCCN(CCO)c1nc(N)nc2cn(Cc3ccc(CN[C@H]4C[C@H]5COC[C@H]54)cc3OC)nc12` [Compound 22], for which the pEC50 was 6.26 at human TLR8 (hTLR8) and 6.21 at human TLR7 (hTLR7).
On to `CCCCN(CCO)c1nc(N)nc2cn(Cc3ccc(CNC[C@H]4C[C@H](O)C4)cc3OC)nc12` [Compound 23], for which the pEC50 on human TLR8 (hTLR8) and on human TLR7 (hTLR7) was 5.72 each time.
For `CCCCN(CCO)c1nc(N)nc2cn(Cc3ccc(CNC4CCOC4)cc3OC)nc12` (centres unmarked) [Compound 25], the values for the pEC50 at human TLR8 (hTLR8) and on human TLR7 (hTLR7) were 6.44 and 6.37, respectively.
For the compound `CCCCN(CCO)c1nc(N)nc2cn(Cc3ccc(CNC4COC4)cc3OC)nc12` [Compound 26], the values for the pEC50 on human TLR8 (hTLR8) and on human TLR7 (hTLR7) were 5.94 and 6.08, respectively.
On the same counts, the results for `CCCCN(CCO)c1nc(N)nc2cn(Cc3ccc(CN4CC5(CC(O)C5)C4)cc3OC)nc12` [Compound 27] are 5.71 and 5.71.
The like results for `CCCCN(CCO)c1nc(N)nc2cn(Cc3ccc(CN4CC5(CCO5)C4)cc3OC)nc12` [Compound 28] were, in that order, 6.58 and 6.55.
`CCCCN(CCO)c1nc(N)nc2cn(Cc3ccc(CNC4CC(O)C4)cc3OC)nc12` (centres unmarked) [Compound 29]: the pEC50 at human TLR8 (hTLR8) and at human TLR7 (hTLR7) was 5.60 in each case.
For the compound `CCCCN(CCO)c1nc(N)nc2cn(Cc3ccc(CN4CC5(C4)CN(C(C)C)C5)cc3OC)nc12` [Compound 30], the pEC50 on human TLR8 (hTLR8) was 5.79; on human TLR7 (hTLR7) it was 5.85.
As for `CCCCN(CCO)c1nc(N)nc2cn(Cc3ccc(CNC(C)(C)CO)cc3OC)nc12` [Compound 32], the pEC50 at human TLR8 (hTLR8) was 5.92; on human TLR7 (hTLR7), 5.60.
The like results for `CCCCN(CCO)c1nc(N)nc2cn(Cc3ccc(CNC(C)(C)COC)cc3OC)nc12` [Compound 33] were, in that order, 6.28 and 6.26.
In the case of `CCCCN(CCO)c1nc(N)nc2cn(Cc3c(F)cc(C4CCN(CCO)CC4)cc3OC)nc12` [Compound 35], the values for the pEC50 on human TLR8 (hTLR8) and on human TLR7 (hTLR7) were 5.73 and 6.26, respectively.
Take `CCCCN(CCO)c1nc(N)nc2cn(Cc3c(F)cc(C4CCN(CC(C)(C)O)CC4)cc3OC)nc12` [Compound 36]: the pEC50 at human TLR8 (hTLR8) is 6.28; on human TLR7 (hTLR7) it was 6.84.
In the case of `CCCCN(CCO)c1nc(N)nc2cn(Cc3c(F)cc(C4CCN(C5CCOCC5)CC4)cc3OC)nc12` [Compound 37, 2-((5-amino-2-(2-fluoro-6-methoxy-4-(1-(tetrahydro-2H-pyran-4-yl)piperidin-4-yl)benzyl)-2H-pyrazolo[4,3-d]pyrimidin-7-yl)(butyl)amino)ethan-1-ol], the figures for the pEC50 on human TLR8 (hTLR8) and at human TLR7 (hTLR7) were 6.29 and 6.75, respectively.
`CCCCN(CCO)c1nc(N)nc2cn(Cc3c(F)cc(C4CCN(C5CC6(CCC6)C5)CC4)cc3OC)nc12` [Compound 39]: the pEC50 on human TLR8 (hTLR8) is 6.36; on human TLR7 (hTLR7), 6.40.
For the compound `CCCCN(CCO)c1nc(N)nc2cn(Cc3c(F)cc(C4CCN(C(C)C)CC4)cc3OC)nc12` [Compound 40], the pEC50 is 6.10 on human TLR8 (hTLR8) and 6.41 on human TLR7 (hTLR7).
`CCCCN(CCO)c1nc(N)nc2cn(Cc3c(F)cc(C4CCN(CC(N)=O)CC4)cc3OC)nc12` [Compound 41]: the pEC50 at human TLR8 (hTLR8) was 6.07; at human TLR7 (hTLR7) it was 6.60.
